Experiment [1] concerns the target T1, nuclear factor-kappa B (NF-kB)-inducing kinase (NIK) (Homo sapiens, UniProt Q99558).
T1 construct: made in house; host or cells: baculovirus-infected insect cells
Briefly: NIK enzyme inhibition assay (Transcreener ADP fluorescence polarization, NIK ADP-FP). The format is biochemical.

Experiment [2] concerns REL-A (p65) nuclear translocation in HeLa cells. As to the kind of experiment: REL-A (p65) nuclear translocation assay in HeLa cells, TNF-α stimulated (classical NF-kB signaling), high content imaging. The format is cell-based. The note with it: compound 4.5 h, then 10 ng/mL TNF-α for 30 minutes, read-out: REL-A HeLa Transloc Assay (IC50). The gist of the method:
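HeLa cells in medium with 10% fetal bovine serum were exposed to compounds (0.2% DMSO final) for 4.5 hours, then stimulated with 10 ng/mL TNF-α for 30 minutes. After fixation in 4% paraformaldehyde and permeabilization with 0.1% Triton X-100, cells were stained with 400 ng/mL anti-REL-A (p65) antibody, an Alexa488 secondary and DRAQ5. Opera imaging quantified the nuclear-to-cytoplasmic signal ratio to give IC50.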

For experiment [3], the system named is p52 (NF-kB2) nuclear translocation in HeLa cells. Briefly: p52 (NF-kB2) nuclear translocation assay in HeLa cells, anti-lymphotoxin beta receptor antibody stimulated (non-classical NF-kB signaling), high content imaging. The format is cell-based. The note with it: 100 ng/mL anti-lymphotoxin beta receptor antibody for 5 hours, read-out: p52 HeLa Transloc Assay (IC50). The gist of the method: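 HeLa cells in 10% FBS medium were treated with compound (0.2% DMSO final) and stimulated with 100 ng/mL anti-lymphotoxin beta receptor antibody for 5 h. Fixed cells were immunostained for p52 and imaged with DRAQ5 nuclear stain. Translocation is the nuclear to cytoplasmic intensity ratio, […].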

In patent publication US20160185797A1, “ALKYNYL ALCOHOLS AND METHODS OF USE” (Genentech, Inc., priority 2013, published 2016) one finds Ki and IC50 data, which are given here for 22 molecules.

pIC50: −log10 of the molar value. Read-outs that look alike come from different tables or passages of the source. A value given as a limit tells only on which side of the number the result lay.

T1 sequence (Q99558 whole entry): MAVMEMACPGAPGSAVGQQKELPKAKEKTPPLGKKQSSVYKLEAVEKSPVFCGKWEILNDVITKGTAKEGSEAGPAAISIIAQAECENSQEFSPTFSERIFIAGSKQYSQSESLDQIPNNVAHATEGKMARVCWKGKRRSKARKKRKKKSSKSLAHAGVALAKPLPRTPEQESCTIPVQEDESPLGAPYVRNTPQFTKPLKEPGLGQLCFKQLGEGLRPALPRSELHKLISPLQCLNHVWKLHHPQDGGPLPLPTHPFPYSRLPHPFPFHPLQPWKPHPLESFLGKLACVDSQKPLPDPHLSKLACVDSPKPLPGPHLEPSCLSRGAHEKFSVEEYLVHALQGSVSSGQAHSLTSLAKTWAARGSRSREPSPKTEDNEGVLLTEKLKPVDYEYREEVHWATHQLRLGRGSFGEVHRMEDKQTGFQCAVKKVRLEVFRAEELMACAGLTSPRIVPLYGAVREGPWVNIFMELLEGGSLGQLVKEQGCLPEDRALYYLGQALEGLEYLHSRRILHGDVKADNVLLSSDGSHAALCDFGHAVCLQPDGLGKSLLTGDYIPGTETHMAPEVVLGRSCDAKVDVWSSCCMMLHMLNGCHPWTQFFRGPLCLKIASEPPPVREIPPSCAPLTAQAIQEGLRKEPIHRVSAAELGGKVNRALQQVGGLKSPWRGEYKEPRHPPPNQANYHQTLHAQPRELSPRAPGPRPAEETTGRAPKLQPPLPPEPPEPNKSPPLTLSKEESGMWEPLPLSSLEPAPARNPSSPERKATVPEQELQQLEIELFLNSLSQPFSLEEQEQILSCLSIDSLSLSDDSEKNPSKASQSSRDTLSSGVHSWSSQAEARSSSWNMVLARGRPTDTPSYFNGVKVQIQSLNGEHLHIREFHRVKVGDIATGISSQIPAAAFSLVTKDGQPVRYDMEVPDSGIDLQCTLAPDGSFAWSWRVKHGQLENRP

By Ki is commonly meant a measure of affinity in units of concentration, obtained from inhibition or displacement. The low end stands for tighter binding, the high end for weaker binding. For orientation: pIC50 means the negative decadic logarithm of the IC50, by convention in mol/L. In the case of `Cc1cc(C#C[C@]2(O)CCN(C)C2=O)cc(-c2nccc(C(N)=O)n2)c1` [Example 94, 2-[3-[2-[(3R)-3-hydroxy-1-methyl-2-oxo-pyrrolidin-3-yl]ethynyl]-5-methyl-phenyl]pyrimidine-4-carboxamide], affinity in experiment [1] was put at a Ki of 1.41 nM. In addition, the pIC50 in experiment [2] (Homo sapiens, HeLa) is at most 4.70; in experiment [3] (Homo sapiens), 6.76.
In turn, `Cc1ccc(-c2cc(C(N)=O)nc(-c3cccc(C#C[C@]4(O)CCN(C)C4=O)c3)n2)cn1` [Example 95, 2-[3-[2-[(3R)-3-hydroxy-1-methyl-2-oxo-pyrrolidin-3-yl]ethynyl]phenyl]-6-(6-methyl-3-pyridyl)pyrimidine-4-carboxamide] came in with an inhibitory constant (Ki) in experiment [1] of 0.49 nM. Moreover, the pIC50 is at most 4.70 in experiment [2] (Homo sapiens, HeLa) and 7.26 in experiment [3] (Homo sapiens).
For `CN1CC[C@@](O)(C#Cc2cccc(-c3nc(C(N)=O)cc(-c4cnccn4)n3)c2)C1=O` [Example 96, 2-[3-[2-[(3R)-3-hydroxy-1-methyl-2-oxo-pyrrolidin-3-yl]ethynyl]phenyl]-6-pyrazin-2-yl-pyrimidine-4-carboxamide] the same measures were 0.45 nM, at most 4.70 and 7.46.
Molecule `CN1CC[C@@](O)(C#Cc2cccc(-c3nc(C(N)=O)cc(-c4cc(F)cc(F)c4)n3)c2)C1=O` [Example 97, 6-(3,5-difluorophenyl)-2-[3-[2-[(3R)-3-hydroxy-1-methyl-2-oxo-pyrrolidin-3-yl]ethynyl]phenyl]pyrimidine-4-carboxamide] showed a Ki in experiment [1] of 0.37 nM. Moreover, the negative-log IC50 (pIC50) was at most 4.70 in experiment [2] (Homo sapiens, HeLa) and 7.24 in experiment [3] (Homo sapiens).
In experiment [1], `CN1CC[C@@](O)(C#Cc2cccc(-c3nc(C(N)=O)cc(-c4cc(F)ccc4F)n3)c2)C1=O` [Example 98, 6-(2,5-difluorophenyl)-2-[3-[2-[(3R)-3-hydroxy-1-methyl-2-oxo-pyrrolidin-3-yl]ethynyl]phenyl]pyrimidine-4-carboxamide] yielded an inhibitory constant (Ki) of 0.23 nM. The negative logarithm of the IC50 (pIC50) in experiment [2] (Homo sapiens, HeLa) is at most 4.70; in experiment [3] (Homo sapiens), 7.09.
For `CN1CC[C@@](O)(C#Cc2cccc(-c3nc(OC4COC4)cc(C(N)=O)n3)c2)C1=O` [Example 99, 2-[3-[2-[(3R)-3-hydroxy-1-methyl-2-oxo-pyrrolidin-3-yl]ethynyl]phenyl]-6-(oxetan-3-yloxy) pyrimidine-4-carboxamide] the same measures were 0.48 nM, at most 4.70 and 6.98.
In turn, `CN1CC[C@@](O)(C#Cc2cccc(-c3ncc(NCC4COC4)c(C(N)=O)n3)c2)C1=O` [Example 100, 2-[3-[2-[(3R)-3-hydroxy-1-methyl-2-oxo-pyrrolidin-3-yl]ethynyl]phenyl]-5-(oxetan-3-ylmethylamino) pyrimidine-4-carboxamide] had an inhibition constant Ki in experiment [1] of 0.1 nM. In addition, the pIC50 in experiment [2] (Homo sapiens, HeLa) was at most 4.70; in experiment [3] (Homo sapiens), 7.94.
For the molecule `COC(C)(C)CNc1cnc(-c2cccc(C#C[C@]3(O)CCN(C)C3=O)c2)nc1C(N)=O` [Example 101, 2-[3-[2-[(3R)-3-hydroxy-1-methyl-2-oxo-pyrrolidin-3-yl]ethynyl]phenyl]-5-[(2-methoxy-2-methyl-propyl)amino]pyrimidine-4-carboxamide], the inhibition constant (Ki) in experiment [1] was 0.52 nM. Besides, the negative logarithm of the IC50 (pIC50) in experiment [2] (Homo sapiens, HeLa) is at most 4.70; in experiment [3] (Homo sapiens), 7.03.
In turn, `CN1CC[C@@](O)(C#Cc2cccc(-c3ncc(NCCN4CCOCC4)c(C(N)=O)n3)c2)C1=O` [Example 102, 2-[3-[2-[(3R)-3-hydroxy-1-methyl-2-oxo-pyrrolidin-3-yl]ethynyl]phenyl]-5-(2-morpholinoethylamino) pyrimidine-4-carboxamide] came in with a Ki in experiment [1] of 0.21 nM. Also, the pIC50 in experiment [2] (Homo sapiens, HeLa) was at most 4.70; in experiment [3] (Homo sapiens) it was 7.17.
On to `Cc1cnn(-c2cc(C(N)=O)nc(-c3cccc(C#C[C@]4(O)CCN(C)C4=O)c3)n2)c1` [Example 104, 2-[3-[2-[(3R)-3-hydroxy-1-methyl-2-oxo-pyrrolidin-3-yl]ethynyl]phenyl]-6-(4-methylpyrazol-1-yl) pyrimidine-4-carboxamide], for which, in experiment [1] (purified NIK 0.5 nM, 10 μM ATP, pH 7.2, Ki from Morrison's quadratic equation), the inhibition constant Ki came out at 0.4 nM. Further, the negative-log IC50 (pIC50) is at most 4.70 in experiment [2] and 7.16 in experiment [3].
In turn, `CN1CC[C@@](O)(C#Cc2cccc(-c3ncc(NCC4(C)COC4)c(C(N)=O)n3)c2)C1=O` [Example 105, 2-[3-[2-[(3R)-3-hydroxy-1-methyl-2-oxo-pyrrolidin-3-yl]ethynyl]phenyl]-5-[(3-methyloxetan-3-yl)methylamino]pyrimidine-4-carboxamide] displayed an inhibition constant Ki in experiment [1] of 0.35 nM. The pIC50 was at most 5.70 in experiment [2] (Homo sapiens, HeLa) and 7.13 in experiment [3] (Homo sapiens).
In experiment [1], `CN1CC[C@@](O)(C#Cc2cccc(-c3nc(OC4COC4)c(N)c(C(N)=O)n3)c2)C1=O` [Example 106, 5-amino-2-[3-[2-[(3R)-3-hydroxy-1-methyl-2-oxo-pyrrolidin-3-yl]ethynyl]phenyl]-6-(oxetan-3-yloxy)pyrimidine-4-carboxamide] had an inhibition constant (Ki) of 0.25 nM. Further, the pIC50 in experiment [2] (Homo sapiens, HeLa) was at most 5.70; in experiment [3] (Homo sapiens), 7.15.
For the molecule `CN1CC[C@@](O)(C#Cc2cccc(-c3nc(OC4CCOCC4)c(N)c(C(N)=O)n3)c2)C1=O` [Example 107, 5-amino-2-[3-[2-[(3R)-3-hydroxy-1-methyl-2-oxo-pyrrolidin-3-yl]ethynyl]phenyl]-6-tetrahydropyran-4-yloxy-pyrimidine-4-carboxamide], affinity in experiment [1] was put at a Ki of 0.4 nM. Further, the pIC50 was at most 5.70 in experiment [2] (Homo sapiens, HeLa) and 6.57 in experiment [3] (Homo sapiens).
On to `COCCOc1nc(-c2cccc(C#C[C@]3(O)CCN(C)C3=O)c2)nc(C(N)=O)c1N` [Example 108, 5-amino-2-[3-[2-[(3R)-3-hydroxy-1-methyl-2-oxo-pyrrolidin-3-yl]ethynyl]phenyl]-6-(2-methoxyethoxy)pyrimidine-4-carboxamide], for which the Ki in experiment [1] is 0.65 nM. Besides, the pIC50 in experiment [2] (Homo sapiens, HeLa) was at most 5.70; in experiment [3] (Homo sapiens) it was 6.67.
Taken in the same sequence, the figures for `COCCNc1cnc(-c2cc(C#C[C@]3(O)CCN(C)C3=O)ccc2F)nc1C(N)=O` [Example 109, 2-[2-fluoro-5-[2-[(3R)-3-hydroxy-1-methyl-2-oxo-pyrrolidin-3-yl]ethynyl]phenyl]-5-(2-methoxyethylamino) pyrimidine-4-carboxamide] were 0.28 nM, at most 5.70 and 7.08.
For `CN1CC[C@@](O)(C#Cc2ccc(F)c(-c3ncc(N)c(C(N)=O)n3)c2)C1=O` [Example 110, 5-amino-2-[2-fluoro-5-[2-[(3R)-3-hydroxy-1-methyl-2-oxo-pyrrolidin-3-yl]ethynyl]phenyl]pyrimidine-4-carboxamide] the same measures were 0.14 nM, at most 5.70 and 7.07.
Taken in the same sequence, the figures for `Cc1ccnn1-c1cc(C(N)=O)nc(-c2ccc(F)c(C#C[C@]3(O)CCN(C)C3=O)c2)n1` [Example 111, 2-[4-fluoro-3-[2-[(3R)-3-hydroxy-1-methyl-2-oxo-pyrrolidin-3-yl]ethynyl]phenyl]-6-(5-methylpyrazol-1-yl)pyrimidine-4-carboxamide] were 0.37 nM, at most 5.70 and 7.12.
For the molecule `CN1CC[C@@](O)(C#Cc2cccc(-c3nc(C(N)=O)c(N)n4ccnc34)c2)C1=O` [Example 112, 5-amino-8-[3-[2-[(3R)-3-hydroxy-1-methyl-2-oxo-pyrrolidin-3-yl]ethynyl]phenyl]imidazo[1,2-a] pyrazine-6-carboxamide], in experiment [1], the affinity, expressed as Ki, was 0.05 nM. Also, the pIC50 was at most 4.70 in experiment [2] (Homo sapiens, HeLa) and 7.05 in experiment [3] (Homo sapiens).
With `CN1CC[C@@](O)(C#Cc2cccc(-c3nc(C(N)=O)cn4c(C(F)(F)F)cnc34)c2)C1=O` [Example 113, 8-[3-[2-[(3R)-3-hydroxy-1-methyl-2-oxo-pyrrolidin-3-yl]ethynyl]phenyl]-3-(trifluoromethyl)imidazo [1,2-a]pyrazine-6-carboxamide], the inhibitory constant (Ki) in experiment [1] was 2.12 nM. In addition, the pIC50 is at most 5.70 in experiment [2] (Homo sapiens, HeLa) and 6.67 in experiment [3] (Homo sapiens).
For `CCn1ncc2c(-c3cccc(C#C[C@]4(O)CCN(C)C4=O)c3)nc(C(N)=O)cc21` [Example 114, 1-ethyl-4-[3-[2-[(3R)-3-hydroxy-1-methyl-2-oxo-pyrrolidin-3-yl]ethynyl]phenyl]pyrazolo[4,3-c] pyridine-6-carboxamide], in experiment [1], affinity was put at a Ki of 1.48 nM. The pIC50 in experiment [2] (Homo sapiens, HeLa) is at most 5.70; in experiment [3] (Homo sapiens), 6.68.
Taken in the same sequence, the figures for `CN1CC[C@@](O)(C#Cc2cc(-c3nc(C(N)=O)c(N)cc3F)ccc2F)C1=O` [Example 116, 3-amino-5-fluoro-6-[4-fluoro-3-[2-[(3R)-3-hydroxy-1-methyl-2-oxo-pyrrolidin-3-yl]ethynyl]phenyl]pyridine-2-carboxamide] were 0.05 nM, 4.91 and 7.94.
On to `CN1CC[C@@](O)(C#Cc2ccc(F)c(-c3cnc(N)c(C(N)=O)n3)c2)C1=O` [Example 117, 3-amino-6-[2-fluoro-5-[2-[(3R)-3-hydroxy-1-methyl-2-oxo-pyrrolidin-3-yl]ethynyl]phenyl] pyrazine-2-carboxamide], for which, in experiment [1], the inhibition constant Ki is 0.05 nM. The negative-log IC50 (pIC50) in experiment [2] (Homo sapiens, HeLa) is at most 4.70; in experiment [3] (Homo sapiens) it was 7.90.
